Reference: patent US12059400B2, “Medical compound” (VERA SALUS RICERCA S.R.L., priority 2017, dated 2024)

Experiments:
melanoma, A375 = assay: Apoptosis, acridine orange/ethidium bromide method; assay type: cell-based, human; conditions: 2 hrs; Compound 2 40 μM, 5 40 μM, 4 40 μM, 3 60 μM, 1 80 μM; FIG. 18
Description: (§1) Tumour cell apoptosis was quantified by the acridine orange/ethidium bromide (AO/EB) method and by using a fluorescence microscope and image-J. In short, after treatment with the test compounds (2 hrs), the tumour cells were placed in contact with an AO/EB solution (in sterile H2O) and photographed with a fluorescence microscope (Leica) by using the ≥20× objective (so as to distinguish the morphology of cell nuclei). In this way, the living cells are labelled with AO and emit fluorescence in the green channel, while the necrotic cells, which have undergone the rupture of the plasma membrane, are permeable to EB and emit fluorescence in the red channel. In contrast, apoptotic cells are permeable to both AO and EB, and as a consequence of the colocalization of the two fluorescences appear yellow-orange when the two individual microscope-acquired fluorescences are superimposed by using the editing program Image J. The objective quantification of the colocalization areas (apoptotic cells) and the non-colocalization areas (living or necrotic cells) was carried out on a number of cells ≥300/condition through the use of Apoptosis Correlator (ImageJ plug-in) and shown as the percentage of living (green), necrotic (red) or apoptotic (yellow-orange) tumour cells. Data analysis was carried out by using GraphPad Prism 6 for graphical representation and statistical processing (2-way ANOVA test).

[1] = tested on: human colon (HCT116) tumour line; assay: Apoptosis, acridine orange/ethidium bromide method; assay type: cell-based; conditions: 2 hrs; Compound 2 50 μM, 5 40 μM, 4 40 μM, 3 60 μM, 1 60 μM; FIG. 18
Description: as §1

[2] = tested on: H1299, lung adenocarcinoma cells; assay: Cell proliferation, crystal violet method; assay type: cell-based, human; conditions: spectrophotometer, read-out: IC50 anti-proliferative effect, LC (H1299)
Description: The compound according to the invention, and in particular the synthetic quercetin derivatives described and illustrated herein were investigated in vitro by using human tumour cells and assessing their impact on the tumour proliferative capacity, with regard to the tumours described above. In particular, the following human tumour cell lines were assessed experimentally: 1) HCT116, colon adenocarcinoma cells; 2) H1299, lung adenocarcinoma cells; 3) A375, melanoma cells, and 4) A431, squamous skin cell carcinoma; 5) 786-0, renal carcinoma cells; 6) PC3, prostate carcinoma cells; 7) BT549, mammary carcinoma cells; 8) CAL27, tongue carcinoma cells (belonging to the head-and-neck carcinomas); 9) HepG2, hepatocellular carcinoma cells; 10) PANC-1, pancreas carcinoma cells; 11) T24, bladder carcinoma cells; 12) OVCAR-3, ovarian carcinoma cells. In addition, a normal human cell line, WS1 (skin fibroblasts) was also treated with the novel synthetic compounds.
(§2) Cell proliferation was quantified by the crystal violet method with a spectrophotometer. In short, after acquiring serial images (0, 24 and 48 hrs) with the EVOS XL Cell Imaging System microscope (Thermo Fisher Scientific), the cells imaged at 48 hrs were fixed with paraformaldehyde (4%) and stained with Crystal Violet (1%). Then, the specific absorbance (λ=590 nm) at 48 hrs was measured with a spectrophotometer (Infinite®200 PRO, Tecan). Data analysis was carried out by using ad-hoc Excel files for graphical representation and statistical processing (t-test). Moreover, the results obtained with Crystal Violet were confirmed by using another cell proliferation assessment method based on the real time cellular analyzer XCELLigence RTCA DP (ACEA Biosciences, Inc.). This tool allows cell growth to be monitored from electrical impedance-derived quantitative values (the so-called Cell Index) measured by tiny electrodes located at the base of the culture wells. Proliferation is monitored for several days (5-7) by setting a Cell Index per minute measure on the instrument. The data are analysed by processing various parameters calculated by the dedicated software, such as the cell duplication time, the slope and the Max Cell Index.
Cell proliferation was quantitated spectrophotometrically by the crystal violet method.

[3] = tested on: human pancreatic carcinoma cells (PANC-1); assay: Cell proliferation, crystal violet method; assay type: cell-based; conditions: for IC50: crystal violet, spectrophotometer, read-out: IC50 anti-proliferative effect, PCC (PANC-1); for PANC-1 cell growth vs vehicle control: 80 μM, FIG. 9a, 9b
Description: as §2, with “The compound according to the invention, and in particular the synthetic quercetin derivatives described and illustrated herein were investigated in vitro by using human tumour cells and assessing their impact on the tumour proliferative capacity, with regard to the tumours described above. In particular, the following human tumour cell lines were assessed experimentally: 1) HCT116, colon adenocarcinoma cells; 2) H1299, lung adenocarcinoma cells; 3) A375, melanoma cells, and 4) A431, squamous skin cell carcinoma; 5) 786-0, renal carcinoma cells; 6) PC3, prostate carcinoma cells; 7) BT549, mammary carcinoma cells; 8) CAL27, tongue carcinoma cells (belonging to the head-and-neck carcinomas); 9) HepG2, hepatocellular carcinoma cells; 10) PANC-1, pancreas carcinoma cells; 11) T24, bladder carcinoma cells; 12) OVCAR-3, ovarian carcinoma cells. In addition, a normal human cell line, WS1 (skin fibroblasts) was also treated with the novel synthetic compounds. Cell proliferation” for “Cell proliferation”, “Cell Index. […] Cell proliferation was quantitated spectrophotometrically by the crystal violet method.” for “Cell Index.”

[4] = tested on: human renal carcinoma cells (786-0); assay: Cell proliferation, crystal violet method; assay type: cell-based; conditions: for 786-0 cell growth vs vehicle control: 80 μM, FIG. 4a, 4b; for IC50: crystal violet, spectrophotometer, read-out: IC50 anti-proliferative effect, RCC - (786-O)
Description: as §2, with “The compound according to the invention, and in particular the synthetic quercetin derivatives described and illustrated herein were investigated in vitro by using human tumour cells and assessing their impact on the tumour proliferative capacity, with regard to the tumours described above. In particular, the following human tumour cell lines were assessed experimentally: 1) HCT116, colon adenocarcinoma cells; 2) H1299, lung adenocarcinoma cells; 3) A375, melanoma cells, and 4) A431, squamous skin cell carcinoma; 5) 786-0, renal carcinoma cells; 6) PC3, prostate carcinoma cells; 7) BT549, mammary carcinoma cells; 8) CAL27, tongue carcinoma cells (belonging to the head-and-neck carcinomas); 9) HepG2, hepatocellular carcinoma cells; 10) PANC-1, pancreas carcinoma cells; 11) T24, bladder carcinoma cells; 12) OVCAR-3, ovarian carcinoma cells. In addition, a normal human cell line, WS1 (skin fibroblasts) was also treated with the novel synthetic compounds. Cell proliferation” for “Cell proliferation”, “Cell Index. […] Cell proliferation was quantitated spectrophotometrically by the crystal violet method.” for “Cell Index.”

[5] = tested on: human prostate carcinoma cells (PC3); assay: Cell proliferation, crystal violet method; assay type: cell-based; conditions: for PC3 cell growth vs vehicle control: 80 μM, FIG. 5a, 5b; for IC50: crystal violet, spectrophotometer, read-out: IC50 anti-proliferative effect, PC - (PC3)
Description: as §2, with “The compound according to the invention, and in particular the synthetic quercetin derivatives described and illustrated herein were investigated in vitro by using human tumour cells and assessing their impact on the tumour proliferative capacity, with regard to the tumours described above. In particular, the following human tumour cell lines were assessed experimentally: 1) HCT116, colon adenocarcinoma cells; 2) H1299, lung adenocarcinoma cells; 3) A375, melanoma cells, and 4) A431, squamous skin cell carcinoma; 5) 786-0, renal carcinoma cells; 6) PC3, prostate carcinoma cells; 7) BT549, mammary carcinoma cells; 8) CAL27, tongue carcinoma cells (belonging to the head-and-neck carcinomas); 9) HepG2, hepatocellular carcinoma cells; 10) PANC-1, pancreas carcinoma cells; 11) T24, bladder carcinoma cells; 12) OVCAR-3, ovarian carcinoma cells. In addition, a normal human cell line, WS1 (skin fibroblasts) was also treated with the novel synthetic compounds. Cell proliferation” for “Cell proliferation”, “Cell Index. […] Cell proliferation was quantitated spectrophotometrically by the crystal violet method.” for “Cell Index.”

[6] = tested on: human bladder carcinoma cells (T24); assay: Cell proliferation, crystal violet method; assay type: cell-based; conditions: for IC50: crystal violet, spectrophotometer, read-out: IC50 anti-proliferative effect, BC (T24); for T24 cell growth vs vehicle control: 80 μM, FIG. 10a, 10b
Description: as §2, with “The compound according to the invention, and in particular the synthetic quercetin derivatives described and illustrated herein were investigated in vitro by using human tumour cells and assessing their impact on the tumour proliferative capacity, with regard to the tumours described above. In particular, the following human tumour cell lines were assessed experimentally: 1) HCT116, colon adenocarcinoma cells; 2) H1299, lung adenocarcinoma cells; 3) A375, melanoma cells, and 4) A431, squamous skin cell carcinoma; 5) 786-0, renal carcinoma cells; 6) PC3, prostate carcinoma cells; 7) BT549, mammary carcinoma cells; 8) CAL27, tongue carcinoma cells (belonging to the head-and-neck carcinomas); 9) HepG2, hepatocellular carcinoma cells; 10) PANC-1, pancreas carcinoma cells; 11) T24, bladder carcinoma cells; 12) OVCAR-3, ovarian carcinoma cells. In addition, a normal human cell line, WS1 (skin fibroblasts) was also treated with the novel synthetic compounds. Cell proliferation” for “Cell proliferation”, “Cell Index. […] Cell proliferation was quantitated spectrophotometrically by the crystal violet method.” for “Cell Index.”

SCC cells (A431) = assay: Cell proliferation, crystal violet method; assay type: cell-based, human; conditions: for A431 cell growth vs vehicle control: 90 μM, FIG. 2a, 2b; for IC50: crystal violet, spectrophotometer, read-out: IC50 anti-proliferative effect, SCC (A431)
Description: as §2, with “The compound according to the invention, and in particular the synthetic quercetin derivatives described and illustrated herein were investigated in vitro by using human tumour cells and assessing their impact on the tumour proliferative capacity, with regard to the tumours described above. In particular, the following human tumour cell lines were assessed experimentally: 1) HCT116, colon adenocarcinoma cells; 2) H1299, lung adenocarcinoma cells; 3) A375, melanoma cells, and 4) A431, squamous skin cell carcinoma; 5) 786-0, renal carcinoma cells; 6) PC3, prostate carcinoma cells; 7) BT549, mammary carcinoma cells; 8) CAL27, tongue carcinoma cells (belonging to the head-and-neck carcinomas); 9) HepG2, hepatocellular carcinoma cells; 10) PANC-1, pancreas carcinoma cells; 11) T24, bladder carcinoma cells; 12) OVCAR-3, ovarian carcinoma cells. In addition, a normal human cell line, WS1 (skin fibroblasts) was also treated with the novel synthetic compounds. Cell proliferation” for “Cell proliferation”, “Cell Index. […] Cell proliferation was quantitated spectrophotometrically by the crystal violet method.” for “Cell Index.”

Substance	IC50 [2] [µM]	IC50 [3] [µM]	IC50 [4] [µM]	IC50 [5] [µM]	IC50 [6] [µM]	IC50 (SCC cells (A431)) [µM]	induction of apoptosis in A375 (melanoma, A375)	induction of apoptosis in HCT116 [1]	786-0 cell growth vs vehicle control [4]	PC3 cell growth vs vehicle control [5]	A431 cell growth vs vehicle control (SCC cells (A431))	PANC-1 cell growth vs vehicle control [3]	T24 cell growth vs vehicle control [6]
2-(3,4-Dihydroxyphenyl)-3-ethoxy-5,7-dihydroxy-4H-chromen-4-one [Compound 1]	100	> 1000	149	79.3	> 1000	–	induced apoptosis	induced apoptosis	significantly inhibit	significantly inhibit	–	–	–
2-(3,4-Dihydroxyphenyl)-3-hexyloxy-5,7-dihydroxy-4H-chromen-4-one [Compound 2]	50.7	95.4	72.5	309	66.8	40.3	induced apoptosis	induced apoptosis	significantly inhibit	–	significantly inhibit	significantly inhibit	significantly inhibit

The remaining substances from weak to strong by IC50 [2], led by results:

IC50 [2] [µM]	IC50 [3] [µM]	IC50 [4] [µM]	IC50 [5] [µM]	IC50 [6] [µM]	IC50 (SCC cells (A431)) [µM]	Substance	induction of apoptosis in A375 (melanoma, A375)	induction of apoptosis in HCT116 [1]	786-0 cell growth vs vehicle control [4]	PC3 cell growth vs vehicle control [5]	A431 cell growth vs vehicle control (SCC cells (A431))	PANC-1 cell growth vs vehicle control [3]	T24 cell growth vs vehicle control [6]
50.5	69.4	32.6	56.9	50.5	25.5	2-(3,4-dihydroxyphenyl)-5,7-dihydroxy-4-oxo-4H-chromen-3-yl palmitate [Compound 5]	induced apoptosis	induced apoptosis	significantly inhibit	significantly inhibit	significantly inhibit	significantly inhibit	significantly inhibit
34.9	156	65.4	46.2	44.9	–	2-(3,4-Dihydroxyphenyl)-3-hexadecyloxy-5,7-dihydroxy-4H-chromen-4-one [Compound 3]	induced apoptosis	induced apoptosis	significantly inhibit	significantly inhibit	–	significantly inhibit	significantly inhibit
15.9	69.6	41.2	34.9	45.5	31	2-(3,4-dihydroxyphenyl)-5,7-dihydroxy-4-oxo-4H-chromen-3-yl acetate [Compound 4]	induced apoptosis	induced apoptosis	significantly inhibit	significantly inhibit	significantly inhibit	significantly inhibit	significantly inhibit
